Laboratory results reported in publication PMC11674800, “Second-Generation Antipsychotics Induce Metabolic Disruption in Adipose Tissue-Derived Mesenchymal Stem Cells Through an aPKC-Dependent Pathway” (Cells, 2024).

Columns and labels:
Format in all cases: cell-based, human
[1] = tested on: ADSCs; experiment: Transferrin uptake (clathrin-dependent endocytosis); conditions: 16 h treatment; transferrin 5 min
Method: For INSRβ endocytosis experiments, the cells were stimulated with 50 ng/mL insulin for 15 min. For transferrin endocytosis experiments, the cells were incubated with 25 μg/mL Transferrin Texas Red for 5 min. After treatment, the cells were washed with PBS and fixed with 4% PFA for 10 min at room temperature, followed by an additional PBS wash. The cells were then permeabilized by incubating them with cold HEPES-Triton X-100 buffer for 5 min at 4 °C. After permeabilization, the cells were incubated with primary antibodies for 30 min, followed by incubation with Alexa Fluor 488- or 546-conjugated secondary antibodies (Invitrogen, Waltham, MA, USA) and phalloidin, labeled with either Alexa Fluor 546 or 633 (Invitrogen Waltham, MA, USA) for 30 min. After incubation, coverslips were mounted on glass slides using a mounting medium. Images were acquired using a confocal microscope (Leica TCS SP8, Wetzlar, Germany) and analyzed using ImageJ (v 1.52a) software in order to quantify and analyze the fluorescence signals.

[2] = tested on: INSRβ; experiment: INSRβ endocytosis assay and immunofluorescence localization; conditions: 5 μM, 16 h; 15 min insulin stimulation
Method: ADSCs were seeded at a density of 100,000 cells/well in a 6-well plate. The protocol was carried out as described in Barrow-McGee et al., 2015 [33]. Cell surface proteins were labeled by incubating the cells with 0.2 mg/mL sulpho-NHS-SS-biotin (Sigma-Aldrich, Saint Louis, MO, USA) in PBS for 45 min on ice. Labeled cells were then washed with cold PBS and incubated at 37 °C in a culture medium containing insulin at 50 ng/mL to allow for INSR trafficking. At the indicated times, the medium was removed and the dishes were transferred to ice and washed with cold PBS. Biotin was removed from the proteins that remained at the cell surface via reduction for 15 min with 180 mM of the membrane-impermeant reducing agent MesNa (sodium 2 mercaptoethane sulphonate, Sigma-Aldrich, Saint Louis, MO, USA) in 50 mM Tris and 100 mM NaCl at pH 8.6. MesNa was quenched by adding 180 mM iodoacetamide (IAA, Sigma-Aldrich, Saint Louis, MO, USA) for 10 min. The cells were lysed using RIPA buffer as previously described. The proteins were quantified using BCA; equal protein amounts received streptavidin–agarose beads (Sigma-Aldrich, Saint Louis, MO, USA) and were agitated at 4 °C for 2 h. Then, the beads were collected via centrifugation (7000× g) and washed in lysis buffer, and the proteins were extracted by heating at 95 °C with sample buffer. In each internalization assay, two controls were carried out. To measure INSRβ at the surface, biotinylated cells at 4 °C were lysed without biotin reduction (Ts). To verify the efficiency of the surface biotin removal, the biotin reduction and MesNa-quenching steps were carried out on cells that had remained on ice (T0). Then, lysis was carried out. All lysates were analyzed via Western blot.
The percentages of internalized INSR were calculated using the following formula: internalized receptor = (receptor level after incubation at 37 °C) − (receptor level at time 0)/(total surface receptor) × 100. All samples were normalized on the input INSR signal.
For INSRβ endocytosis experiments, the cells were stimulated with 50 ng/mL insulin for 15 min. For transferrin endocytosis experiments, the cells were incubated with 25 μg/mL Transferrin Texas Red for 5 min. After treatment, the cells were washed with PBS and fixed with 4% PFA for 10 min at room temperature, followed by an additional PBS wash. The cells were then permeabilized by incubating them with cold HEPES-Triton X-100 buffer for 5 min at 4 °C. […] Images were acquired using a confocal microscope (Leica TCS SP8, Wetzlar, Germany) and analyzed using ImageJ (v 1.52a) software in order to quantify and analyze the fluorescence signals.

[3] = tested on: ADSCs; experiment: Acidic vesicle quantification (Lysotracker)
Method: After treatment, the medium was removed, and the cells were stained with 50 nM Lysotracker Deep Red (Invitrogen, Waltham, MA, USA) and 5 μg/mL Hoechst 33342 (Sigma). Staining was conducted in the dark at 37 °C for 30 min. Fluorescence signals were captured using a FLoid Cell Imaging Station (Life Technology, Carlsbad, CA, USA). The ratio of Lysotracker red signal to blue nuclear signal was quantified using ImageJ software. For acidic vesicle rescue experiments, ADSCs were plated at a concentration of 10,000 cells per well in 48-well plates.

[4] = tested on: PPARG, FABP4, HSL, and LPL; experiment: Adipogenic gene expression (real-time PCR); conditions: differentiated cells cotreated with 5 µM
Method: After treatment, RNA was extracted using the phenol/chloroform method (RNAzol, Sigma-Aldrich, Saint Louis, MO, USA) followed by isopropanol precipitation, according to the manufacturer’s instructions. The precipitated RNA was then washed with 75% ice-cold ethanol and resuspended in water. The RNA concentration was measured using NanoDrop 2000. cDNA was synthesized via reverse transcription using recombinant Moloney murine leukemia virus reverse transcriptase (MultiScribe Reverse Transcriptase, Bio-Rad, Hercules, CA, USA) and the iScript cDNA Synthesis Kit (Bio-Rad, Hercules, CA, USA). Gene expression was analyzed using real-time PCR using the SsoAdvanced Universal SYBR Green Supermix Kit (Bio-Rad, Hercules, CA, USA). Relative quantification was calculated using the ΔΔCt method.

[5] = tested on: cathepsin B; experiment: Cathepsin B Western blot; conditions: 5 μM, 16 h
Method: After treatments, whole-cell lysates were prepared using RIPA lysis buffer supplemented with protease inhibitors (AEBSF, aprotinin, bestatin, E-64, EDTA, leupeptin, Sigma-Aldrich, Saint Louis, MO, USA) and orthovanadate (Sigma-Aldrich, Saint Louis, MO, USA). The proteins in the lysates were collected and quantified using the Pierce BCA protein assay kit (Thermo Fisher Scientific, Waltham, MA, USA). Subsequently, the proteins were denatured by heating at 95 °C for 5 min in the presence of 2% Sodium Dodecyl Sulfate (SDS, Sigma-Aldrich, Saint Louis, MO, USA), 150 mM dithiothreitol (DTT, Sigma-Aldrich, Saint Louis, MO, USA), and 0.01% bromophenol blue (Sigma-Aldrich, Saint Louis, MO, USA). The samples were then analyzed using SDS-PAGE (SDS-Polyacrylamide Gel Electrophoresis) and Western blotting (WB).

Cc1cc2c(s1)Nc1ccccc1N=C2N1CCN(C)CC1 [olanzapine]
short-term transferrin endocytosis [1]: significant reduction | INSRβ colocalization in LAMP1-positive lysosomes [2]: unaffected | INSRβ internalization [2]: significant reduction | INSRβ localization in CD63-positive recycling endosomes [2]: reduced | localization of INSRβ in RAB7-positive late endosomes [2]: significantly increased localization | acidic compartment accumulation (Lysotracker staining) [3]: progressive time- and dose-dependent increase | concentrations at which acidic compartment accumulation was observed [3]: below 1 µM | expression of genes related to adipogenesis (PPARG, FABP4, HSL, LPL) [4]: significantly reduced expression | levels of cathepsin B [5]: elevated levels
